Data reported in US8067447B2, “Modulators of glucocorticoid receptor, AP-1, and/or NF-κB activity and use thereof” (Bristol-Myers Squibb Company, priority 2006, dated 2011).
Read-outs that look alike come from different tables or passages of the source.

Columns and labels:
[1] = test system: AP-1 induced transcriptional activity; assay: Cellular Transrepressional Assay (AP-1 luciferase reporter in A549 cells, PMA-activated); assay type: cell-based; conditions: A549 cells with 7x AP-1 luciferase reporter, 10 ng/ml PMA, read-out: AP-1 (EC50, nM) (Cellular Transrepression Assay)
Procedure: To measure the ability of test molecules to inhibit AP-1 induced transcriptional activity an A549 cell was utilized which was stably transfected with a plasmid containing 7× AP-1 DNA binding sites (pAP-1-Luc plasmid, Stratagene Co. La Jolla, Calif.) followed by the gene for luciferase. Cells were activated with 10 ng/ml of […] (PMA) plus or minus test molecules for 7 hours. After 7 hours a luciferase reagent was added to measure luciferase enzymatic activity in the cell. After a 10 minute incubation of luciferase reagent with cells, luminescence was measured in a TopCount luminescence counter. Repression of AP-1 activity was calculated as the percentage decrease in the signal induced by PMA alone. Test molecules were analyzed in the concentration range from 0.1 nM to 40 μM. EC50s were determined by using standard curve fitting methods such as Excel fit (Microsoft Co.).

[2] = target: T1, human glucocorticoid receptor (Homo sapiens, UniProt P04150); assay: Glucocorticoid Receptor Binding Assay (I), fluorescence polarization competitor kit (Fluormone GS Red); conditions: purified human recombinant full-length GR 2 nM, 1 nM Fluormone GS Red, FP
T1 construct: purified human recombinant full-length glucocorticoid receptor (2 nM); purchased Invitrogen Part #2893
T1 sequence (P04150 1-777): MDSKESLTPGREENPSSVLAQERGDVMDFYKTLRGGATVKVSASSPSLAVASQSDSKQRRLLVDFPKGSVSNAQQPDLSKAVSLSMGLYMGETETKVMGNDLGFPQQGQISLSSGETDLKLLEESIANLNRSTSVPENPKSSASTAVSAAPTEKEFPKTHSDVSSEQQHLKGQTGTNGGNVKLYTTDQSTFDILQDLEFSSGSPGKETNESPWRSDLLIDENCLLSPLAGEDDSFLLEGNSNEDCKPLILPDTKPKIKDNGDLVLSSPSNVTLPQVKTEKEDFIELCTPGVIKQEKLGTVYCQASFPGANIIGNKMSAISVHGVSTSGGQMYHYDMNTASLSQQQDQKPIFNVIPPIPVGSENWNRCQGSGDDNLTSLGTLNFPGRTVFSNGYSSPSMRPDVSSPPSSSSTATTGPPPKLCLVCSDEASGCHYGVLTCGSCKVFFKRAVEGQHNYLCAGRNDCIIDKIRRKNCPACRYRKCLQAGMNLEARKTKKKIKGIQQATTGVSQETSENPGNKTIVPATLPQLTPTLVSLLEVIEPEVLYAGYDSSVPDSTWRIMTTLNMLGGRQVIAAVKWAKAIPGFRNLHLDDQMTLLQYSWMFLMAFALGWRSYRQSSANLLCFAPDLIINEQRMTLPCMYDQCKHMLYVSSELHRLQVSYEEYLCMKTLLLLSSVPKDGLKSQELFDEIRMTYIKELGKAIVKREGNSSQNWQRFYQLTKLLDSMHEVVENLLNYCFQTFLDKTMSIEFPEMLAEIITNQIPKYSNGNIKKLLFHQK
Procedure: Briefly, purified human recombinant full-length glucocorticoid receptor (2 nM) was mixed with fluorescently labeled glucocorticoid (1 nM Fluormone GS Red) in the presence or absence of test compound. After two hour incubation at room temperature in the dark, the fluorescence polarization (FP) of the samples was measured. […] Test compounds were analyzed in the concentration range from 8.5E-05 μM to 5 μM.

[3] = read-out: GR (Ki, nM) (GR Binding Assay (I))

Row | SMILES | EC50 ([1]; 7 hours) [nM] | Ki [2, 3] [nM] | EC50 ([1]; Homo sapiens, A549, 7 h) [nM] | Ki ([2]; GR (Ki, nM) (GR Binding Assay (I))) [nM]
1 | O=C(CC(c1ccccc1)c1ccc2c(cnn2-c2ccc(F)cc2)c1)Nc1nncs1 (single isomer, unassigned) [136-enant B, 3-(1-(4-Fluorophenyl)-1H-indazol-5-yl)-3-phenyl-N-(1,3,4-thiadiazol-2-yl)propanamide] | 13 | 6 |  | 
2 | O=C(CC(c1ccccc1)c1ccc2c(cnn2-c2ccc(F)cc2)c1)Nc1nncs1 (single isomer, unassigned) [136-enant A, 3-(1-(4-Fluorophenyl)-1H-indazol-5-yl)-3-phenyl-N-(1,3,4-thiadiazol-2-yl)propanamide] | > 10000 | 23 |  | 
3 | CCOC(=O)c1csc(NC(=O)C(C)(C)C(c2ccccc2)c2ccc3c(cnn3-c3ccc(F)cc3)c2)n1 (stereo not drawn) [Example 27, ethyl 2-(3-(1-(4-fluorophenyl)-1H-indazol-5-yl)-2,2-dimethyl-3-phenylpropanamido)thiazol-4-carboxylate] |  | 23 | 1310 | 
4 | CCC(c1ccc2c(cnn2-c2ccc(F)cc2)c1)C(C)(C)C(=O)Nc1nccs1 (stereo not drawn) [Example 39, 3-(1-(4-Fluorophenyl)-1H-indazol-5-yl)-2,2-dimethyl-N-(thiazol-2-yl)pentanamide] |  | 9.8 | 87 | 
5 | CC(C)(C(=O)Nc1sccc1C#N)C(c1ccccc1)c1ccc2c(cnn2-c2ccc(F)cc2)c1 (stereo not drawn) [Example 19, N-(3-cyanothiophen-2-yl)-3-(1-(4-fluorophenyl)-1H-indazol-5-yl)-2,2-dimethyl-3-phenylpropanamide] |  | 47 | > 10000 | 
6 | CC(C)(Cc1ccc2c(cnn2-c2ccc(F)cc2)c1)C(=O)Nc1nncs1 [Example 32, 3-(1-(4-Fluorophenyl)-1H-indazol-5-yl)-2,2-dimethyl-N-(1,3,4-thiadiazol-2-yl)propanamide] |  | 84 | 4320 | 
7 | CC(C)(C(=O)Nc1ncc(Cl)s1)C(c1ccccc1)c1ccc2c(cnn2-c2ccc(F)cc2)c1 (stereo not drawn) [Example 26, N-(5-chlorothiazol-2-yl)-3-(1-(4-fluorophenyl)-1H-indazol-5-yl)-2,2-dimethyl-3-phenylpropanamide] |  | 16 | 404 | 
8 | CC(C)(C(=O)NC1CCCC1)C(c1ccccc1)c1ccc2c(cnn2-c2ccc(F)cc2)c1 (stereo not drawn) [Example 3, N-cyclopentyl-3-(1-(4-fluorophenyl)-1H-indazol-5-yl)-2,2-dimethyl-3-phenylpropanamide] |  | 6.9 | 199 | 
9 | CC(C)(C(=O)NS(=O)(=O)C(F)(F)F)C(c1ccccc1)c1ccc2c(cnn2-c2ccc(F)cc2)c1 (stereo not drawn) [Example 6, 3-(1-(4-fluorophenyl)-1H-indazol-5-yl)-2,2-dimethyl-3-phenyl-N-(trifluoromethylsulfonyl) propanamide] |  | 77 | > 10000 | 
10 | CC(C)(Cc1ccc2c(cnn2-c2ccc(F)cc2)c1)C(=O)Nc1nccs1 [Example 31, 3-(1-(4-Fluorophenyl)-1H-indazol-5-yl)-2,2-dimethyl-N-(thiazol-2-yl)propanamide] |  | 98 | > 10000 | 
11 | CC(C)(C(=O)Nc1nccs1)C(c1ccccc1)c1ccc2c(cnn2C2CCOCC2)c1 (stereo not drawn) [Example 58, 2,2-dimethyl-3-phenyl-3-(1-(tetrahydro-2H-pyran-4-yl)-1H-indazol-5-yl)-N-(thiazol-2-yl)propanamide] |  | 10 | 177 | 

More lines, now with the values ahead:

Row | EC50 ([1]; 7 hours) [nM] | Ki [2, 3] [nM] | EC50 ([1]; Homo sapiens, A549, 7 h) [nM] | Ki ([2]; GR (Ki, nM) (GR Binding Assay (I))) [nM] | SMILES
12 |  | 84 | > 10000 |  | COCCCn1cc2cc(C(c3ccccc3)C(C)(C)C(=O)Nc3nncs3)ccc2n1 (stereo not drawn) [Example 69, 3-(2-(3-methoxy-propyl)-2H-indazol-5-yl)-2,2-dimethyl-3-phenyl-N-(1,3,4-thiadiazol-2-yl)propanamide]
13 |  | 57 | 3610 |  | CC(C)(C(=O)Nc1nccs1)C(c1ccccc1)c1ccc2[nH]c(-c3nccs3)cc2c1 (stereo not drawn) [Example 117, 2,2-dimethyl-3-phenyl-N-(thiazol-2-yl)-3-(2-(thiazol-2-yl)-1H-indol-5-yl)propanamide]
14 |  | 95 | 2930 |  | CC(C)(C(=O)Nc1nncs1)C(c1ccccc1)c1ccc2[nH]c(-c3nccs3)cc2c1 (stereo not drawn) [Example 118, 2,2-dimethyl-3-phenyl-N-(1,3,4-thiadiazol-2-yl)-3-(2-(thiazol-2-yl)-1H-indol-5-yl)propanamide]
15 |  | 17 | 1020 |  | CC(C)(C(=O)Nc1nncs1)C(c1ccccc1)c1ccc2c(cnn2CCCO)c1 (stereo not drawn) [Example 75, 3-(1-(3-hydroxypropyl)-1H-indazol-5-yl)-2,2-dimethyl-3-phenyl-N-(1,3,4-thiadiazol-2-yl)propanamide]
16 |  | 59 | > 10000 |  | CC(C)(C(=O)Nc1nccs1)C(c1ccccc1)c1ccc2[nH]cc(C=O)c2c1 (stereo not drawn) [Example 109, 3-(3-Formyl-1H-indol-5-yl)-2,2-dimethyl-3-phenyl-N-(thiazol-2-yl)propanamide]
17 |  | 47 | 550 |  | CC(C)(C(=O)Nc1nncs1)C(c1ccccc1)c1ccc2c(cnn2CCO)c1 (stereo not drawn) [Example 65, 3-(1-(2-hydroxyethyl)-1H-indazol-5-yl)-2,2-dimethyl-3-phenyl-N-(1,3,4-thiadiazol-2-yl)propanamide]
18 |  | 46 | > 10000 |  | CC(C)(C(=O)Nc1nncs1)C(c1ccccc1)c1ccc2nn(Cc3ccccc3)cc2c1 (stereo not drawn) [Example 73, 3-(2-benzyl-2H-indazol-5-yl)-2,2-dimethyl-3-phenyl-N-(1,3,4-thiadiazol-2-yl)propanamide]
19 |  | 5.8 | 74 |  | CC(C)(C(=O)Nc1nncs1)C(C)(C)c1ccc2c(cnn2-c2ccc(F)cc2)c1 [Example 120, 3-(1-(4-fluorophenyl)-1H-indazol-5-yl)-2,2,3-trimethyl-N-(1,3,4-thiadiazol-2-yl)butanamide]
20 |  | 11 | 1290 |  | CC(C)(C(=O)Nc1nccs1)C(c1ccccc1)c1ccc2c(cnn2-c2ccncc2)c1 (stereo not drawn) [Example 81, 2,2-dimethyl-3-phenyl-3-(1-(pyridin-4-yl)-1H-indazol-5-yl)-N-(thiazol-2-yl)propanamide]
21 |  |  | 40 | 7.8 | CC(C)(C(=O)Nc1nccs1)C(c1ccccc1)c1ccc2c(cnn2-c2cccnc2)c1 (stereo not drawn) [Example 85, 2,2-dimethyl-3-phenyl-3-(1-(pyridin-3-yl)-1H-indazol-5-yl)-N-(thiazol-2-yl)propanamide]
22 |  | 3.6 | 3560 |  | CC(C)(C(=O)Nc1nccs1)C(c1ccccc1)c1cnc2c(cnn2-c2ccccc2)c1 (stereo not drawn) [Example 162, 2,2-dimethyl-3-phenyl-3-(1-phenyl-1H-pyrazolo[3,4-b]pyridin-5-yl)-N-(thiazol-2-yl)propanamide]
23 |  | 13 | 2410 |  | CC(C)(C(=O)Nc1nccs1)C(c1ccccc1)c1ccc2c(-c3ccccc3)n[nH]c2c1 (stereo not drawn) [Example 112, 2,2-Dimethyl-3-phenyl-3-(3-phenyl-1H-indazol-6-yl)-N-(thiazol-2-yl)propanamide]
24 |  | 5 | 20 |  | CC(C)(C(=O)Nc1nncs1)C(c1ccccc1)c1ccc2c(cnn2-c2ccccc2)c1 (stereo not drawn) [Example 87, 2,2-dimethyl-3-phenyl-3-(1-phenyl-1H-indazol-5-yl)-N-(1,3,4-thiadiazol-2-yl)propanamide]
25 |  | 18 | 32 |  | CC(C)(C(=O)Nc1nncs1)C(c1ccccc1)c1ccc2c(cnn2-c2ccc(Cl)cc2)c1 (stereo not drawn) [Example 93, 3-(1-(4-chlorophenyl)-1H-indazol-5-yl)-2,2-dimethyl-3-phenyl-N-(1,3,4-thiadiazol-2-yl)propanamide]
26 |  | 14 | 158 |  | CC(C)n1ncc2cc(C(c3ccccc3)C(C)(C)C(=O)Nc3nccs3)ccc21 (stereo not drawn) [Example 61, 3-(1-isopropyl-1H-indazol-5-yl)-2,2-dimethyl-3-phenyl-N-(thiazol-2-yl)propanamide]
27 |  | 28 | > 10000 |  | COCCCn1ncc2cc(C(c3ccccc3)C(C)(C)C(=O)Nc3nncs3)ccc21 (stereo not drawn) [Example 71]
